Measured values published in ChEMBL document CHEMBL3259791, “Discovery of (E)-3-((styrylsulfonyl)methyl)pyridine and (E)-2-((styrylsulfonyl)methyl)pyridine derivatives as anticancer agents: synthesis, structure-activity relationships, and biological activities” (J Med Chem, 2014).
Activity calls are given as the source filed them. The rule behind the calls is not given here.

Tests used:
MCF7 = assay: Antiproliferative activity against human MCF7 cells assessed as cell growth inhibition after 72 hrs by MTT assay; type: functional; settings: MCF7, 72 h
HCT-116 = assay: Antiproliferative activity against human HCT116 cells assessed as cell growth inhibition after 72 hrs by MTT assay; type: functional; settings: HCT-116, 72 h
A2780 [1] = assay: Antiproliferative activity against human A2780 cells assessed as cell growth inhibition after 72 hrs by MTT assay; type: functional; settings: A2780, 72 h
A2780 [2] = assay: Reduction in CDC25C level in human A2780 cells at […] after 24 hrs by Western blot analysis; type: functional, cell-based
A2780 [3] = assay: Induction of apoptosis in human A2780 cells assessed as caspase-3/7 activation at […] after 24 hrs by using Apo-ONE homogeneous caspase-3/7 kit; type: functional, cell-based
A2780 [4] = assay: Reduction in Mcl1 level in human A2780 cells at […] after 24 hrs by Western blot analysis; type: functional, cell-based
WI-38 = assay: Induction of apoptosis in human WI38 cells assessed as caspase-3/7 activation up to 1 uM after 24 hrs by using Apo-ONE homogeneous caspase-3/7 kit; type: functional, cell-based

## CCS(=O)(=O)Nc1cc(CS(=O)(=O)/C=C/c2c(OC)cc(OC)cc2OC)cnc1OC
MCF7
  GI50: > 10 µM
HCT-116
  GI50: > 10 µM
A2780 [1]
  GI50: > 10 µM

## CCCS(=O)(=O)Nc1cc(CS(=O)(=O)/C=C/c2c(OC)cc(OC)cc2OC)cnc1OC
MCF7
  GI50: > 10 µM
HCT-116
  GI50: > 10 µM
A2780 [1]
  GI50: > 10 µM

## COc1cc(OC)c(/C=C/S(=O)(=O)Cc2ccc(OC)c(NCC(=O)O)n2)c(OC)c1
MCF7
  GI50: 0.545 µM
HCT-116
  GI50: 0.329 µM
A2780 [1]
  GI50: 0.253 µM

## COc1cc(OC)c(/C=C/S(=O)(=O)Cc2cnc(OC)c(NC(C)=O)c2)c(OC)c1
MCF7
  GI50: 7.5 µM
HCT-116
  GI50: 8.22 µM
A2780 [1]
  GI50: 7.09 µM

## COc1cc(OC)c(/C=C/S(=O)(=O)Cc2ccc(OC)c(NC(C)=O)n2)c(OC)c1
MCF7
  GI50: 0.66 µM
HCT-116
  GI50: 0.32 µM
A2780 [1]
  GI50: 0.5 µM

## CCN(C(C)=O)c1cc(CS(=O)(=O)/C=C/c2c(OC)cc(OC)cc2OC)cnc1OC
MCF7
  GI50: > 10 µM
HCT-116
  GI50: > 10 µM

## COc1cc(OC)c(C(C(c2cnc(OC)c([N+](=O)[O-])c2)S(C)(=O)=O)N2CCCCC2)c(OC)c1 (stereo not given)
MCF7
  GI50: 6.41 µM
HCT-116
  GI50: 4.4 µM

## COc1cc(OC)c(/C=C/S(=O)(=O)Cc2ccc(OC)c(NCC(=O)O)c2)c(OC)c1
A2780 [2]
  inhibition: Active
A2780 [3]
  Activity: Active
A2780 [4]
  inhibition: Active
WI-38
  Activity: inactive

## COc1cc(OC)c(/C=C/S(=O)(=O)Cc2cnc(OC)c(NCC(=O)O)c2)c(OC)c1
HCT-116
  GI50: 0.41 µM
A2780 [1]
  GI50: 0.376 µM
